Tests used:
[1] = LNP particle size, polydispersity index and charge by Zeta Sizer; assay type: physicochemical; conditions: LNP lipid:DOPE:Cholesterol:DMG-PEG 35:20:43.5:1.5, firefly luciferase saRNA; for Polydispersity Index (PI) / Z-average (nm): N/P approx. 40/1
Method: Cationic lipids, DOPE, Cholesterol and DMG-PEG lipid were solubilized in ethanol or DMSO at a molar ratio of 35:20:43.5:1.5 and a concentration of 100:25:20:25 μg/μL for C12-200 or 170:25:20:25 μg/μL for the comparator lipids. Lipid nanoparticles (LNP) were prepared by targeting an N/P ratio of approximately 40/1 with saRNA. Briefly, the firefly luciferase saRNA of approximately 9659 nucleotides was diluted to 0.5 mg/mL in 5 mM citrate buffer, pH 4.5. Microfluidic mixer (Ignite from Precision Nanosystems, California, USA) was used to mix the lipid solution with the saRNA aqueous solution at a ratio of about 1:3 (vol/vol) with total flow rates above 10 ml/min. The ethanol was then removed, and the external buffer replaced with 10 mM TRIS-HCL, PH 7.4, by dialysis. Finally, the lipid nanoparticles were filtered through a 0.2 μm pore sterile filter. Lipid nanoparticle particle size was 50-150 nm diameter and polydispersity index (PI) of 0.1-0.4 as determined by Zeta Sizer (Malvern Panalytical, UK). The charge of the formulation was also measured by Zeta Sizer and ranged between 20 to −20 mV.

[2] = saRNA loading / encapsulation efficiency, Quant-IT RiboGreen assay; assay type: physicochemical; conditions: LNP lipid:DOPE:Cholesterol:DMG-PEG 35:20:43.5:1.5, firefly luciferase saRNA
Method: The saRNA loading in LNP formulations was quantified using a Quant-IT RiboGreen assay (Thermo Fisher Scientific, Waltham, Massachusetts, USA) as previously described. 14 samples were diluted tenfold in 1x Tris HCL-EDTA (TE) buffer (10 mM Tris-HCL, 1 mM EDTA, pH 7.5) with or without 2% (v/v) Triton X-100 (Sigma-Aldrich, Saint Louis, Missouri, USA). Standard solutions were also prepared in 1xTE with or without 2% (v/v) Triton X-100 to account for any variation in fluorescence. The assay was performed according to the manufacturer's protocol. Samples were loaded on a black 96-well plate and analysed for fluorescence on a microplate reader (Tecan Infinite® 200 PRO) at an excitation of 485 nm and emission at 528 nm. Encapsulation efficiency was calculated between 80-100%.

[3] = Weight evolution of the animals following administration of LNPs; assay type: in vivo; conditions: female SWISS mice
Method: (§1) Female SWISS mice (6 weeks old) were purchased from Janvier Laboratories (Paris, France) and kept in individually ventilated cages with access to food and water ad libitum. Mice were anesthetized with isoflurane (Zoetis, Louvain-La-Neuve, Belgium) (5% for induction and 2% for maintenance) and intramuscularly injected with a total of 1 μg in 100 μL Tris-HCL (50 μL per leg) LNP-formulated luciferase saRNA (for each group n=7). The expression of the luciferase induced bioluminescence was measured via non-invasive In vivo bioluminescent imaging (In vivo Imaging System (IVIS) Lumina III, Perkin Elmer, Waltham, Massachusetts, USA), 10 minutes after subcutaneous injection of […] of D-luciferin (GoldBio, Saint Louis, Missouri, USA, #LUCK-1G) were measured in day 0 (before injection), day 1, day 3, day 5, day 7, day 10, day 15 and day 20.

[4] = tested on: expression of the luciferase saRNA; test: In vivo bioluminescent imaging after intramuscular injection of LNP-formulated luciferase saRNA; conditions: 1 μg LNP-formulated luciferase saRNA intramuscularly, female SWISS mice
Method: as §1

[5] = Day 1, 1 μg LNP-formulated saRNA intramuscularly
[6] = Day 3, 1 μg LNP-formulated saRNA intramuscularly
[7] = Day 5, 1 μg LNP-formulated saRNA intramuscularly
[8] = Day 7, 1 μg LNP-formulated saRNA intramuscularly
[9] = Day 10, 1 μg LNP-formulated saRNA intramuscularly
[10] = Day 15, 1 μg LNP-formulated saRNA intramuscularly
[11] = Day 20, 1 μg LNP-formulated saRNA intramuscularly

SMILES	Zetapotential (mV) [1] [mV]	Polydispersity Index (PI) [1]	Z-average (nm) [1] [nm]	Encapsulation (%) [2] [%]	Weight ([3]; Day 0) [g]	Weight [3, 5] [g]	Weight [3, 6] [g]	Weight [3, 7] [g]	Weight [3, 8] [g]	Weight [3, 9] [g]	Weight [3, 10] [g]	Weight [3, 11] [g]	Bioluminescence expression of LNPs ([4]; Day 1)	Bioluminescence expression of LNPs ([4]; Day 3)	Bioluminescence expression of LNPs ([4]; Day 5)	Bioluminescence expression of LNPs ([4]; Day 7)	Bioluminescence expression of LNPs ([4]; Day 10)	Bioluminescence expression of LNPs ([4]; Day 15)	Bioluminescence expression of LNPs ([4]; Day 20)
CCCCCCCCCCCCCCOC(=O)CCN(CCC(=O)OCCCCCCCCCCCCCC)CCN1CCN(CCN(CCC(=O)OCCCCCCCCCCCCCC)CCC(=O)OCCCCCCCCCCCCCC)CC1 [Comparator 1 (C1), reference compound]	9.07	0.16	70.96	99.03	26.56	25.99	27.21	27.59	27.09	27.17	29.43	30.11							
CCCCCCC(CCCC)C(=O)OCCCCCCN(CCCCCCOC(=O)C(CCCC)CCCCCC)CCN(CCCCCCOC(=O)C(CCCC)CCCCCC)CCN1CCN(CCN(CCCCCCOC(=O)C(CCCC)CCCCCC)CCCCCCOC(=O)C(CCCC)CCCCCC)CC1 (centres unmarked) [Compound 9-28, ((2-(4-(2-((2-(bis(6-((2-butyloctanoyl)oxy)hexyl)amino)ethyl) (6-((2-butyloctanoyl)oxy)hexyl)amino)ethyl)piperazin-1-yl)ethyl)azanediyl)bis(hexane-6,1-diyl)bis(2-butyloctanoate)]					28.36	27.19	29.44	29.17	29.37	29.39	31.43	32.46	1.01E+08	8.67E+08	9.45E+08	5.65E+08	2.08E+06	8.15E+04	3.35E+04
CCCCCCCCC(CCCCCC)C(=O)OCCCCCCN(CCCCCCOC(=O)C(CCCCCC)CCCCCCCC)CCN(CCCCCCOC(=O)C(CCCCCC)CCCCCCCC)CCN1CCN(CCN(CCCCCCOC(=O)C(CCCCCC)CCCCCCCC)CCCCCCOC(=O)C(CCCCCC)CCCCCCCC)CC1 (centres unmarked) [Compound 9-31, ((2-(4-(2-((2-(bis(6-((2-hexyldecanoyl)oxy)hexyl)amino)ethyl) (6-((2-hexyldecanoyl)oxy)hexyl)amino)ethyl)piperazin-1-yl)ethyl)azanediyl)bis (hexane-6,1-diyl)bis(2-hexyldecanoate)]					27.70	26.17	28.46	27.66	28.29	28.27	29.76	30.90	3.10E+07	2.74E+08	5.31E+08	2.16E+08	2.22E+06	2.46E+05	2.71E+04
CCCCCCCCC(CCCCCC)C(=O)OCCN(CCOC(=O)C(CCCCCC)CCCCCCCC)CCN1CCN(CCN(CCOC(=O)C(CCCCCC)CCCCCCCC)CCOC(=O)C(CCCCCC)CCCCCCCC)CC1 (centres unmarked) [Compound 9-35, ((piperazine-1,4-diylbis(ethane-2,1-diyl))bis(azanetriyl))tetrakis(ethane-2,1-diyl)tetrakis(2-hexyldecanoate)]					30.01	30.06	30.43	29.87	30.30	31.23	32.13	32.23	8.83E+05	9.99E+07	5.92E+07	6.45E+07	5.62E+07	6.82E+05	2.44E+05
CCCCCCC(CCCC)C(=O)NCCCCCCN(CCCCCCNC(=O)C(CCCC)CCCCCC)CCN(CCCCCCNC(=O)C(CCCC)CCCCCC)CCN1CCN(CCN(CCCCCCNC(=O)C(CCCC)CCCCCC)CCCCCCNC(=O)C(CCCC)CCCCCC)CC1 (centres unmarked) [Compound 9-40, N,N'-(((2-(4-(2-((2-(bis(6-(2-butyloctanamido)hexyl)amino)ethyl) (6-(2-butyloctanamido)hexyl)amino)ethyl)piperazin-1-yl)ethyl)azanediyl)bis(hexane-6,1-diyl))bis(2-butyloctanamide)]					30.11	29.54	29.41	29.19	30.31	30.51	31.09	32.37	6.07E+07	6.79E+08	1.14E+09	8.88E+08	2.00E+07	1.32E+06	2.64E+05
CCCCCCC(CCCC)C(=O)NCCCCCCN(CCCCCCNC(=O)C(CCCC)CCCCCC)CCN1CCN(CCN(CCCCCCNC(=O)C(CCCC)CCCCCC)CCCCCCNC(=O)C(CCCC)CCCCCC)CC1 (centres unmarked) [Compound 9-41, N, N', N″, N″'-(((piperazine-1,4-diylbis(ethane-2,1-diyl))bis(azanetriyl))tetrakis(hexane-6,1-diyl))tetrakis(2-butyloctanamide)]					29.19	29.19	29.43	29.21	30.44	31.06	31.26	31.77							
CCCCCCCCCCC(O)CN(CCN1CCN(CCN(CC(O)CCCCCCCCCC)CC(O)CCCCCCCCCC)CC1)CCN(CC(O)CCCCCCCCCC)CC(O)CCCCCCCCCC (centres unmarked) [Compound C12-200, 1,1′-((2-(4-(2-((2-(bis (2-hydroxydodecyl)amino)ethyl) (2-hydroxydodecyl)amino)ethyl)piperazin-1-yl)ethyl)azanediyl) bis(dodecan-2-ol), reference compound]	9.59	0.19	94.03	97.46	28.61	27.17	28.62	28.98	28.97	29.23	30.16	31.23							

Source: patent US20250236599A1, “LIPID NANOPARTICLES FOR OLIGONUCLEOTIDE DELIVERY” (ZIPHIUS NV, priority 2021, published 2025)
